Results published in a compilation of properties of binary mixtures (doi:10.1021/acs.iecr.1c02970).

Assay: xn = mol fraction of the nth substance listed
Conditions: 100 kPa

CC[n+]1ccn(C)c1.CS(=O)(=O)[O-] + O
Conditions	electrical conductivity [S/m]	speed of sound [m/s]	viscosity [mPa·s]
293.15 K, x1 = 0.002	0.693	–	–
293.15 K, x1 = 0.0177	–	–	1.439
293.15 K, x1 = 0.0181	–	1596.2	–
293.15 K, x1 = 0.028	4.07	–	–
293.15 K, x1 = 0.0357	–	–	1.98
293.15 K, x1 = 0.0375	–	1686.1	–
293.15 K, x1 = 0.0489	4.55	–	–
293.15 K, x1 = 0.07	4.39	–	–
293.15 K, x1 = 0.0749	–	1801.7	–
293.15 K, x1 = 0.0945	–	1837.1	–
293.15 K, x1 = 0.1089	–	–	5.395
293.15 K, x1 = 0.1122	3.62	–	–
293.15 K, x1 = 0.113	–	1857.6	–
293.15 K, x1 = 0.1833	–	1882.3	–
293.15 K, x1 = 0.1848	–	–	10.55
293.15 K, x1 = 0.2034	2.29	–	–
293.15 K, x1 = 0.2741	–	1871.1	–
293.15 K, x1 = 0.3671	–	1850.8	–
293.15 K, x1 = 0.3752	1.19	–	–
293.15 K, x1 = 0.4263	–	–	34.52
293.15 K, x1 = 0.6064	–	1809.5	–
293.15 K, x1 = 0.6951	–	1800.2	–
293.15 K, x1 = 0.7708	–	1793	–
293.15 K, x1 = 0.9157	–	1780.8	–
293.15 K, x1 = 0.9339	0.201	–	–
293.15 K, x1 = 0.9357	–	–	214.4
293.15 K, x2 = 0.0082	–	1779.6	–
298.15 K, x1 = 0.0375	–	1686.1	–
298.15 K, x1 = 0.056	–	1749	–
298.15 K, x1 = 0.0749	–	1794.6	–
298.15 K, x1 = 0.0945	–	1828.1	–
298.15 K, x1 = 0.113	–	1847.4	–
298.15 K, x1 = 0.2741	–	1859.1	–
298.15 K, x1 = 0.3671	–	1839	–
298.15 K, x1 = 0.489	–	1815.1	–
298.15 K, x1 = 0.6064	–	1797	–
298.15 K, x1 = 0.6951	–	1787.9	–
298.15 K, x1 = 0.9157	–	1767.6	–
298.15 K, x2 = 0.0082	–	1766.9	–
303.15 K, x1 = 0.002	0.852	–	–
303.15 K, x1 = 0.0165	4.03	–	–
303.15 K, x1 = 0.0181	–	1607.4	–
303.15 K, x1 = 0.028	5.09	–	–
303.15 K, x1 = 0.0357	–	–	1.541
303.15 K, x1 = 0.0375	–	1685.5	–
303.15 K, x1 = 0.0489	5.75	–	–
303.15 K, x1 = 0.0674	–	–	2.309
303.15 K, x1 = 0.07	5.61	–	–
303.15 K, x1 = 0.0749	–	1787.3	–
303.15 K, x1 = 0.0945	–	1818.7	–
303.15 K, x1 = 0.1089	–	–	3.994
303.15 K, x1 = 0.113	–	1837.3	–
303.15 K, x1 = 0.1833	–	1859.5	–
303.15 K, x1 = 0.1848	–	–	7.58
303.15 K, x1 = 0.2034	3.13	–	–
303.15 K, x1 = 0.2741	–	1847.2	–
303.15 K, x1 = 0.3671	–	1827.1	–
303.15 K, x1 = 0.3752	1.67	–	–
303.15 K, x1 = 0.4263	–	–	23.25
303.15 K, x1 = 0.489	–	1802.7	–
303.15 K, x1 = 0.6951	–	1775.8	–
303.15 K, x1 = 0.7708	–	1767.9	–
303.15 K, x1 = 0.9157	–	1755.3	–
303.15 K, x1 = 0.9339	0.351	–	–
303.15 K, x2 = 0.0082	–	1754.4	–
308.15 K, x1 = 0.0181	–	1611.3	–
308.15 K, x1 = 0.0375	–	1684.1	–
308.15 K, x1 = 0.056	–	1739.2	–
308.15 K, x1 = 0.0749	–	1779.7	–
308.15 K, x1 = 0.113	–	1827	–
308.15 K, x1 = 0.1833	–	1848.4	–
308.15 K, x1 = 0.2741	–	1835.3	–
308.15 K, x1 = 0.3671	–	1815.2	–
308.15 K, x1 = 0.489	–	1790.4	–
308.15 K, x1 = 0.6951	–	1763.8	–
308.15 K, x1 = 0.7708	–	1755.8	–
308.15 K, x1 = 0.9157	–	1743.1	–
308.15 K, x2 = 0.0082	–	1742.1	–
313.15 K, x1 = 0.002	1.02	–	–
313.15 K, x1 = 0.0165	4.87	–	–
313.15 K, x1 = 0.0177	–	–	0.917
313.15 K, x1 = 0.0181	–	1614.1	–
313.15 K, x1 = 0.028	6.18	–	–
313.15 K, x1 = 0.0375	–	1682.2	–
313.15 K, x1 = 0.0489	7.04	–	–
313.15 K, x1 = 0.056	–	1733.8	–
313.15 K, x1 = 0.0674	–	–	1.819
313.15 K, x1 = 0.07	6.95	–	–
313.15 K, x1 = 0.0749	–	1771.7	–
313.15 K, x1 = 0.0945	–	1799.6	–
313.15 K, x1 = 0.1122	6	–	–
313.15 K, x1 = 0.113	–	1816.6	–
313.15 K, x1 = 0.1833	–	1836.9	–
313.15 K, x1 = 0.1848	–	–	5.649
313.15 K, x1 = 0.2034	4.08	–	–
313.15 K, x1 = 0.2741	–	1823.4	–
313.15 K, x1 = 0.3671	–	1803.3	–
313.15 K, x1 = 0.4263	–	–	16.5
313.15 K, x1 = 0.489	–	1778.5	–
313.15 K, x1 = 0.6064	–	1760.4	–
313.15 K, x1 = 0.6951	–	1751.7	–
313.15 K, x1 = 0.7708	–	1743.9	–
313.15 K, x1 = 0.9339	0.558	–	–
313.15 K, x1 = 0.9357	–	–	68.4
313.15 K, x2 = 0.0082	–	1730	–
318.15 K, x1 = 0.0181	–	1615.9	–
318.15 K, x1 = 0.056	–	1727.8	–
318.15 K, x1 = 0.0749	–	1763.5	–
318.15 K, x1 = 0.113	–	1806.2	–
318.15 K, x1 = 0.2741	–	1811.2	–
318.15 K, x1 = 0.3671	–	1791.3	–
318.15 K, x1 = 0.489	–	1766.7	–
318.15 K, x1 = 0.6064	–	1748.6	–
318.15 K, x1 = 0.7708	–	1731.9	–
318.15 K, x1 = 0.9157	–	1719.1	–
318.15 K, x2 = 0.0082	–	1717.9	–
323.15 K, x1 = 0.002	1.2	–	–
323.15 K, x1 = 0.0165	5.73	–	–
323.15 K, x1 = 0.0181	–	1616.5	–
323.15 K, x1 = 0.028	7.33	–	–
323.15 K, x1 = 0.056	–	1721.3	–
323.15 K, x1 = 0.0674	–	–	1.468
323.15 K, x1 = 0.07	8.43	–	–
323.15 K, x1 = 0.0749	–	1754.8	–
323.15 K, x1 = 0.0945	–	1779.5	–
323.15 K, x1 = 0.1089	–	–	2.428
323.15 K, x1 = 0.1122	7.28	–	–
323.15 K, x1 = 0.1848	–	–	4.37
323.15 K, x1 = 0.2741	–	1799	–
323.15 K, x1 = 0.489	–	1754.8	–
323.15 K, x1 = 0.6951	–	1727.9	–
323.15 K, x1 = 0.7708	–	1720	–
323.15 K, x1 = 0.9157	–	1707.2	–
323.15 K, x1 = 0.9357	–	–	44.06
323.15 K, x2 = 0.0082	–	1705.9	–
328.15 K, x1 = 0.0181	–	1616.2	–
328.15 K, x1 = 0.0375	–	1672.1	–
328.15 K, x1 = 0.056	–	1714.4	–
328.15 K, x1 = 0.0749	–	1745.8	–
328.15 K, x1 = 0.0945	–	1769	–
328.15 K, x1 = 0.113	–	1783.9	–
328.15 K, x1 = 0.1833	–	1800.7	–
328.15 K, x1 = 0.2741	–	1786.7	–
328.15 K, x1 = 0.489	–	1743	–
328.15 K, x1 = 0.6064	–	1725	–
328.15 K, x1 = 0.6951	–	1716.1	–
328.15 K, x1 = 0.7708	–	1707.9	–
328.15 K, x1 = 0.9157	–	1695.4	–
333.15 K, x1 = 0.002	1.38	–	–
333.15 K, x1 = 0.0165	6.66	–	–
333.15 K, x1 = 0.0177	–	–	0.642
333.15 K, x1 = 0.0181	–	1615.2	–
333.15 K, x1 = 0.028	8.53	–	–
333.15 K, x1 = 0.0357	–	–	0.848
333.15 K, x1 = 0.0375	–	1667.4	–
333.15 K, x1 = 0.0489	9.85	–	–
333.15 K, x1 = 0.0674	–	–	1.214
333.15 K, x1 = 0.07	9.96	–	–
333.15 K, x1 = 0.0749	–	1736.4	–
333.15 K, x1 = 0.0945	–	1758.3	–
333.15 K, x1 = 0.1089	–	–	1.965
333.15 K, x1 = 0.1122	8.86	–	–
333.15 K, x1 = 0.113	–	1772.4	–
333.15 K, x1 = 0.1848	–	–	3.473
333.15 K, x1 = 0.2034	6.33	–	–
333.15 K, x1 = 0.2741	–	1774.2	–
333.15 K, x1 = 0.3752	3.67	–	–
333.15 K, x1 = 0.4263	–	–	9.38
333.15 K, x1 = 0.6064	–	1713.3	–
333.15 K, x1 = 0.6951	–	1704.2	–
333.15 K, x1 = 0.7708	–	1696.1	–
333.15 K, x1 = 0.9157	–	1683.7	–
333.15 K, x1 = 0.9339	1.16	–	–
333.15 K, x1 = 0.9357	–	–	29.98
333.15 K, x2 = 0.0082	–	1682.3	–
343.15 K, x1 = 0.002	1.59	–	–
343.15 K, x1 = 0.0177	–	–	0.551
343.15 K, x1 = 0.0181	–	1610.8	–
343.15 K, x1 = 0.028	9.78	–	–
343.15 K, x1 = 0.0357	–	–	0.735
343.15 K, x1 = 0.0375	–	1656.3	–
343.15 K, x1 = 0.056	–	1690.9	–
343.15 K, x1 = 0.0674	–	–	1.026
343.15 K, x1 = 0.07	11.6	–	–
343.15 K, x1 = 0.0749	–	1716.8	–
343.15 K, x1 = 0.0945	–	1736.2	–
343.15 K, x1 = 0.1089	–	–	1.629
343.15 K, x1 = 0.1122	10.4	–	–
343.15 K, x1 = 0.113	–	1748.7	–
343.15 K, x1 = 0.1833	–	1762.7	–
343.15 K, x1 = 0.1848	–	–	2.831
343.15 K, x1 = 0.2034	7.58	–	–
343.15 K, x1 = 0.2741	–	1749.3	–
343.15 K, x1 = 0.3671	–	1730.3	–
343.15 K, x1 = 0.3752	4.5	–	–
343.15 K, x1 = 0.489	–	1707.6	–
343.15 K, x1 = 0.6951	–	1680.7	–
343.15 K, x1 = 0.9157	–	1660.7	–
343.15 K, x1 = 0.9339	1.55	–	–
343.15 K, x1 = 0.9357	–	–	21.61
343.15 K, x2 = 0.0082	–	1659	–
353.15 K, x1 = 0.002	1.81	–	–
353.15 K, x1 = 0.0177	–	–	0.475
353.15 K, x1 = 0.028	11.1	–	–
353.15 K, x1 = 0.0357	–	–	0.625
353.15 K, x1 = 0.07	13.2	–	–
353.15 K, x1 = 0.1089	–	–	1.37
353.15 K, x1 = 0.1122	12.1	–	–
353.15 K, x1 = 0.2034	8.9	–	–
353.15 K, x1 = 0.9357	–	–	16.3
